Literature values as cited in article PMC10985535 (RSC Advances, 2024).

Test system: CT-DNA

For `CC[n+]1c(-c2ccccc2)c2cc(N)ccc2c2ccc(N)cc21.[Br-]` [EtBr], the “Ksv of classical intercalator” value is listed as 10^7 M^−1.
